The experiment has as its target IRAK4 (Homo sapiens (Human), UniProt Q9NWZ3). Nature of the experiment: IRAK4 Kinase Assay (IMAP fluorescence polarization). The note with it: 0.5 nM GST tagged IRAK4, 100 μM ATP, 30 minutes at 25° C., IMAP FP. It is filed as biochemical. Put shortly:
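GST-tagged IRAK4 (0.5 nM) phosphorylated 100 nM fluorescent peptide RP7030 with 100 μM ATP in 10 mM Tris-HCl pH 7.2, MgCl2, DTT and Tween 20 for 30 min at 25 °C. Phosphorylation was read as the increase in fluorescence polarization after binding to IMAP nanoparticles.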
(Fluorescence polarisation rises when a labelled molecule tumbles more slowly, as on binding a larger partner.)

Where a name gives a salt, the structure may show the parent alone.

Chain of IRAK4 (Q9NWZ3 whole entry): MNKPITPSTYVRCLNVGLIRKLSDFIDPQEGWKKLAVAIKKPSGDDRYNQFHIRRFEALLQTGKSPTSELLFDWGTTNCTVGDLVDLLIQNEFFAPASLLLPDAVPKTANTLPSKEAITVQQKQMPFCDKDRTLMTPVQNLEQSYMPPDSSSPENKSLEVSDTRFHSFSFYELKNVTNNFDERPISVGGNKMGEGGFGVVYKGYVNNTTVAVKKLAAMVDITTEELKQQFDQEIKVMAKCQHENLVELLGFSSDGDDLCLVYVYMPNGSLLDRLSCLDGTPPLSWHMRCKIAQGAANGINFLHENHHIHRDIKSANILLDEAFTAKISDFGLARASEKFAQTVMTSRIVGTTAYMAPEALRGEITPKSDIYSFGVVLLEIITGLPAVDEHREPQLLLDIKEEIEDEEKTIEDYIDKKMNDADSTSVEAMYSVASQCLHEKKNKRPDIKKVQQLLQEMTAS

In the case of `N#Cc1ccccc1NC(=O)c1ccc2ccc(N3CCNCC4(CC4)C3)nn12` [Example 103, N-(2-cyanophenyl)-2-(5,8-diazaspiro[2.6]non-5-yl)pyrrolo[1,2-b]pyridazine-7-carboxamide trifluoroacetate], the IC50 (usually the midpoint of a concentration-inhibition curve) came to 766 nM. This lies in the sub-micromolar range.
Under `N[C@@H]1[C@H](Nc2ccc3ccc(C(=O)Nc4ccsc4C(F)(F)F)n3n2)CCCC1(F)F` [Example 117, 2-{[(1R,2R)-2-amino-3,3-difluorocyclohexyyl]amino}-N-[2-(trifluoromethyl)thiophen-3-yl]pyrrolo[1,2-b]pyridazine-7-carboxamide trifluoroacetate] stands 2980 nM; under `CC(C)n1cc(NC(=O)c2ccc3ccc(N[C@@H]4CCCC[C@@H]4O)nn23)c(C(F)F)n1` [Example 55, N-[3-(difluoromethyl)-1-(1-methylethyl)-1H-pyrazol-4-yl]-2-{[(1R,2S)-2-hydroxycyclohexyl]amino}pyrrolo[1,2-b]pyridazine-7-carboxamide trifluoroacetate], 53 nM; under `O=C(Nc1ccccc1C(F)(F)F)c1ccc2ccc(N3CCCNCC3)nn12` [Example 111, 2-(1,4-Diazepan-1-yl)-N-(2-(trifluoromethyl)phenyl)pyrrolo[1,2-b]pyridazine-7-carboxamide], 1420 nM.
For the compound `O=C(Nc1ccccc1Cl)c1ccc2ccc(N3CCCNCC3)nn12` [Example 59, N-(2-chlorophenyl)-2-(1,4-diazepan-1-yl)pyrrolo[1,2-b]pyridazine-7-carboxamide trifluoroacetate], the IC50 was 1200 nM.
In the case of `Cn1ncc(NC(=O)c2ccc3ccc(N[C@@H]4CCCC[C@@H]4N)nn23)c1C(F)(F)F` [Example 45, 2-{[(1R,2S)-2-aminocyclohexyl]amino}-N-[1-methyl-5-(trifluoromethyl)-1H-pyrazol-4-yl]pyrrolo[1,2-b]pyridazine-7-carboxamide trifluoroacetate] it was 136 nM; in that of `N#Cc1ccccc1NC(=O)c1ccc2ccc(N[C@@H]3CCCNC3)nn12` [Example 105, N-(2-cyanophenyl)-2-[(3R)-piperidin-3-ylamino]pyrrolo[1,2-b]pyridazine-7-carboxamide trifluoroacetate], 6 nM.
In the case of `N[C@@H]1[C@H](Nc2ccc3ccc(C(=O)Nc4ccsc4Cl)n3n2)CCCC1(F)F` [Example 90, 2-{[(1R,2R)-2-amino-3,3-difluoro-cyclohexyl]amino}-N-(2-chlorothiophen-3-yl)pyrrolo[1,2-b]pyridazine-7-carboxamide trifluoroacetate] it was 1920 nM; in that of `Cn1cc(NC(=O)c2ccc3ccc(N4CC5CCC4CN5)nn23)c(Cl)n1` (stereo not shown) [Example 26, N-(3-chloro-1-methyl-1H-pyrazol-4-yl)-2-(2,5-diazabicyclo[2.2.2]oct-2-yl)pyrrolo[1,2-b]pyridazine-7-carboxamide trifluoroacetate], 28 nM; in that of `Cn1cc(NC(=O)c2ccc3ccc(N[C@@H]4CCCCNC4)nn23)c(C(F)F)n1` (single isomer, unassigned) [Example 41, 2-[(3R)- or (3S)-azepan-3-ylamino]-N-[3-(difluoromethyl)-1-methyl-1H-pyrazol-4-yl]pyrrolo[1,2-b]pyridazine-7-carboxamide trifluoroacetate], 0.2 nM.
`N#Cc1ccccc1NC(=O)c1ccc2ccc(N[C@@H]3CCCCNC3)nn12` (single isomer, unassigned) [Example 108, 2-[(3R)- or (3S)-azepan-3-ylamino]-N-(2-cyanophenyl)pyrrolo [1,2-b]pyridazine-7-carboxamide trifluoroacetate] returned an IC50 of 89 nM.
In the case of `Cn1cc(NC(=O)c2ccc3ccc(N4C[C@H]5CC[C@@H]4CN5)nn23)c(C(F)F)n1` (single isomer, unassigned) [Example 38, 2-[(1S,4S)- or (1R,4R)-2,5-diazabicyclo[2.2.2]oct-2-yl]-N-[3-(difluoromethyl)-1-methyl-1H-pyrazol-4-yl]pyrrolo[1,2-b]pyridazine-7-carboxamide trifluoroacetate] it was 2 nM; in that of `N[C@H]1CCCC[C@H]1Nc1ccc2ccc(C(=O)Nc3cscc3C(F)F)n2n1` [Example 72, 2-{[(1R,2S)-2-aminocyclohexyl]amino}-N-[4-(difluoromethyl)thiophen-3-yl]pyrrolo[1,2-b]pyridazine-7-carboxamide trifluoroacetate], 24 nM.
For the compound `N[C@H]1CCCC[C@H]1Nc1ccc2ccc(C(=O)Nc3ccccc3Cl)n2n1` [Example 65, 2-{[(1R,2S)-2-aminocyclohexyl]amino}-N-(2-chlorophenyl)pyrrolo[1,2-b]pyridazine-7-carboxamide trifluoroacetate], the half-maximal inhibitory concentration (IC50) amounted to 6 nM.
Take `N#Cc1ccccc1NC(=O)c1ccc2ccc(N3CCCNCC3)nn12` [Example 100, N-(2-Cyanophenyl)-2-(1,4-diazepan-1-yl)pyrrolo[1,2-b]pyridazine-7-carboxamide]: it took 866 nM to reach half-maximal inhibition (IC50).
In the case of `N[C@H]1CCCC[C@H]1Nc1ccc2ccc(C(=O)Nc3ccccc3Br)n2n1` [Example 58, 2-{[(1R,2S)-2-aminocyclohexyl]amino}-N-(2-bromo-phenyl)pyrrolo[1,2-b]pyridazine-7-carboxamide trifluoroacetate] it was 11 nM.

The record behind these values is US10040798B2, “Pyrrolopyridazine inhibitors of IRAK4 activity” (MERCK SHARP & DOHME CORP., priority 2015, dated 2018).
